According to ChEMBL document CHEMBL1125697, “Synthesis and pharmacological examination of 1-(3-methoxy-4-methylphenyl)-2-aminopropane and 5-methoxy-6-methyl-2-aminoindan: similarities to 3,4-(methylenedioxy)methamphetamine (MDMA)” (J Med Chem, 1991):

What was measured:
[1] = system: Rattus norvegicus; assay: Momoamine and metabolic levels observed 1 week following acute dosing against at a dose of 20 mg/kg Frontal cortex DOPAC; format: ADME, organism-based; set-up: dose 20 mg/kg; settings: in vivo, 168 h
[2] = system: Rattus norvegicus; assay: Momoamine and metabolic levels observed 1 week following acute dosing against at a dose of 20 mg/kg Frontal cortex HVA; format: ADME, organism-based; set-up: dose 20 mg/kg; settings: in vivo, 168 h
[3] = system: Rattus norvegicus; assay: Momoamine and metabolic levels observed 1 week following acute dosing against at a dose of 20 mg/kg Frontal cortex NE; format: ADME, organism-based; set-up: dose 20 mg/kg; settings: in vivo, 168 h
[4] = system: Rattus norvegicus; assay: Momoamine and metabolic levels observed 1 week following acute dosing against at a dose of 20 mg/kg Frontal cortex DA; format: ADME, organism-based; set-up: dose 20 mg/kg; settings: in vivo, 168 h
[5] = system: Rattus norvegicus; assay: Momoamine and metabolic levels observed 1 week following acute dosing against at a dose of 10 mg/kg Hippocampus 5-HT; format: ADME, organism-based; set-up: dose 10 mg/kg; settings: in vivo, 168 h
[6] = system: Rattus norvegicus; assay: Momoamine and metabolic levels observed 1 week following acute dosing against at a dose of 10 mg/kg Hippocampus NE; format: ADME, organism-based; set-up: dose 10 mg/kg; settings: in vivo, 168 h
[7] = system: Rattus norvegicus; assay: Momoamine and metabolic levels observed 1 week following acute dosing at a dose of 10 mg/kg Frontal cortex 5-HIAA; format: ADME, organism-based; set-up: dose 10 mg/kg; settings: in vivo, 168 h
[8] = system: Rattus norvegicus; assay: Momoamine and metabolic levels observed 1 week following acute dosing at a dose of 10 mg/kg Frontal cortex 5-HT; format: ADME, organism-based; set-up: dose 10 mg/kg; settings: in vivo, 168 h
[9] = system: Rattus norvegicus; assay: Momoamine and metabolic levels observed 1 week following acute dosing at a dose of 10 mg/kg Frontal cortex DA; format: ADME, organism-based; set-up: dose 10 mg/kg; settings: in vivo, 168 h
[10] = system: Rattus norvegicus; assay: Momoamine and metabolic levels observed 1 week following acute dosing at a dose of 10 mg/kg Frontal cortex DOPAC; format: ADME, organism-based; set-up: dose 10 mg/kg; settings: in vivo, 168 h
[11] = system: Rattus norvegicus; assay: Momoamine and metabolic levels observed 1 week following acute dosing against at a dose of 20 mg/kg Hippocampus NE; format: ADME, organism-based; set-up: dose 20 mg/kg; settings: in vivo, 168 h
[12] = system: Rattus norvegicus; assay: Momoamine and metabolic levels observed 2 weeks following sub-acute dosing against Frontal cortex 5-HIAA; format: ADME, organism-based; settings: in vivo, 336 h
[13] = system: Rattus norvegicus; assay: Momoamine and metabolic levels observed 2 weeks following sub-acute dosing against Frontal cortex 5-HT; format: ADME, organism-based; settings: in vivo, 336 h
[14] = system: Rattus norvegicus; assay: Momoamine and metabolic levels observed 2 weeks following sub-acute dosing against Frontal cortex DA; format: ADME, organism-based; settings: in vivo, 336 h
[15] = system: Rattus norvegicus; assay: Momoamine and metabolic levels observed 2 weeks following sub-acute dosing against Frontal cortex DOPAC; format: ADME, organism-based; settings: in vivo, 336 h
[16] = system: Rattus norvegicus; assay: Momoamine and metabolic levels observed 2 weeks following sub-acute dosing against Frontal cortex NE; format: ADME, organism-based; settings: in vivo, 336 h
[17] = system: Rattus norvegicus; assay: Momoamine and metabolic levels observed 2 weeks following sub-acute dosing against Hippocampus 5-HIAA; format: ADME, organism-based; settings: in vivo, 336 h
[18] = system: Rattus norvegicus; assay: Momoamine and metabolic levels observed 2 weeks following sub-acute dosing against Hippocampus 5-HT; format: ADME, organism-based; settings: in vivo, 336 h
[19] = system: Rattus norvegicus; assay: Momoamine and metabolic levels observed 1 week following acute dosing against at a dose of 20 mg/kg Frontal cortex 5-HIAA; format: ADME, organism-based; set-up: dose 20 mg/kg; settings: in vivo, 168 h
[20] = system: Rattus norvegicus; assay: Momoamine and metabolic levels observed 1 week following acute dosing against at a dose of 20 mg/kg Frontal cortex 5-HT; format: ADME, organism-based; set-up: dose 20 mg/kg; settings: in vivo, 168 h
[21] = system: Rattus norvegicus; assay: Momoamine and metabolic levels observed 1 week following acute dosing at a dose of 10 mg/kg Frontal cortex HVA; format: ADME, organism-based; set-up: dose 10 mg/kg; settings: in vivo, 168 h
[22] = system: Rattus norvegicus; assay: Momoamine and metabolic levels observed 1 week following acute dosing at a dose of 10 mg/kg Frontal cortex NE; format: ADME, organism-based; set-up: dose 10 mg/kg; settings: in vivo, 168 h
[23] = system: Rattus norvegicus; assay: Momoamine and metabolic levels observed 1 week following acute dosing at a dose of 10 mg/kg Hippocampus 5-HIAA; format: ADME, organism-based; set-up: dose 10 mg/kg; settings: in vivo, 168 h
[24] = system: Rattus norvegicus; assay: Momoamine and metabolic levels observed 2 weeks following sub-acute dosing against Hippocampus NE; format: ADME, organism-based; settings: in vivo, 336 h
[25] = system: Rattus norvegicus; assay: Momoamine and metabolic levels observed at 3 hr postdrug against, at a dose of 20 mg/kg Frontal cortex 5-HIAA; format: ADME, organism-based; set-up: dose 20 mg/kg; settings: in vivo
[26] = system: Rattus norvegicus; assay: Momoamine and metabolic levels observed at 3 hr postdrug against, at a dose of 20 mg/kg Frontal cortex 5-HT; format: ADME, organism-based; set-up: dose 20 mg/kg; settings: in vivo
[27] = system: Rattus norvegicus; assay: Momoamine and metabolic levels observed at 3 hr postdrug against, at a dose of 20 mg/kg Frontal cortex DA; format: ADME, organism-based; set-up: dose 20 mg/kg; settings: in vivo
[28] = system: Rattus norvegicus; assay: Momoamine and metabolic levels observed at 3 hr postdrug against, at a dose of 20 mg/kg Frontal cortex DOPAC; format: ADME, organism-based; set-up: dose 20 mg/kg; settings: in vivo
[29] = system: Rattus norvegicus; assay: Momoamine and metabolic levels observed at 3 hr postdrug against, at a dose of 20 mg/kg Frontal cortex NE; format: ADME, organism-based; set-up: dose 20 mg/kg; settings: in vivo
[30] = system: Rattus norvegicus; assay: Momoamine and metabolic levels observed at 3 hr postdrug against, at a dose of 20 mg/kg Hippocampus 5-HIAA; format: ADME, organism-based; set-up: dose 20 mg/kg; settings: in vivo
[31] = system: Rattus norvegicus; assay: Momoamine and metabolic levels observed at 3 h postdrug against, at a dose of 20 mg/kg Hippocampus 5-HT; format: ADME, organism-based; set-up: dose 20 mg/kg; settings: in vivo
[32] = system: Rattus norvegicus; assay: Momoamine and metabolic levels observed at 3 hr postdrug against, at a dose of 20 mg/kg Hippocampus NE; format: ADME, organism-based; set-up: dose 20 mg/kg; settings: in vivo
[33] = system: Rattus norvegicus; assay: Momoamine and metabolic levels observed 1 week following acute dosing against at a dose of 20 mg/kg Hippocampus 5-HIAA; format: ADME, organism-based; set-up: dose 20 mg/kg; settings: in vivo, 168 h
[34] = system: Rattus norvegicus; assay: Momoamine and metabolic levels observed 1 week following acute dosing against at a dose of 20 mg/kg Hippocampus 5-HT; format: ADME, organism-based; set-up: dose 20 mg/kg; settings: in vivo, 168 h
[35] = system: Rattus norvegicus; assay: Effective dose was evaluated for drug discrimination in I-trained rats, when given at a dose of 0.25 micro mol/kg; format: functional
[36] = system: Rattus norvegicus; assay: Effective dose was evaluated for drug discrimination in I-trained rats, when given at a dose of 0.25 mg/kg; format: functional
[37] = system: Rattus norvegicus; assay: Effective dose was evaluated for drug discrimination in I-trained rats, when given at a dose of 1.16 micro mol/kg; format: functional
[38] = species: Rattus norvegicus; assay: Compound was evaluated for the uptake inhibition of [3H]-5-HT in rats; format: functional
[39] = system: Rattus norvegicus; assay: Percentage of non disrupted rats that selected the drug lever, when given at a dose of 0.25 mg/kg; format: functional
[40] = system: Rattus norvegicus; assay: Percentage of non disrupted rats that selected the drug lever, when given at a dose of 0.25 mg/kg in S-Amphetamine-Trained rats; format: functional
[41] = system: Rattus norvegicus; assay: Percentage of non disrupted rats that selected the drug lever, when given at a dose of 0.5 mg/kg; format: functional
[42] = system: Rattus norvegicus; assay: Percentage of non disrupted rats that selected the drug lever, when given at a dose of 1.00 mg/kg in […]-Trained rats; format: functional
[43] = system: Rattus norvegicus; assay: Percentage of non disrupted rats that selected the drug lever, when given at a dose of 1.00 mg/kg in S-Amphetamine-Trained rats; format: functional
[44] = system: Rattus norvegicus; assay: Percentage of non disrupted rats that selected the drug lever, when given at a dose of 2.00 mg/kg; format: functional
[45] = system: Rattus norvegicus; assay: Percentage of non disrupted rats that selected the drug lever, when given at a dose of 2.00 mg/kg in […]-Trained rats; format: functional
[46] = system: Rattus norvegicus; assay: Percentage of non disrupted rats that selected the drug lever, when given at a dose of 2.50 mg/kg in […]-Trained rats; format: functional; settings: dose 2.5 mg/kg
[47] = system: Rattus norvegicus; assay: Percentage of non disrupted rats that selected the drug lever, when given at a dose of 0.5 mg/kg in […]-Trained rats; format: functional
[48] = system: Rattus norvegicus; assay: Percentage of non disrupted rats that selected the drug lever, when given at a dose of 0.5 mg/kg in S-Amphetamine-Trained rats; format: functional
[49] = system: Rattus norvegicus; assay: Percentage of non disrupted rats that selected the drug lever, when given at a dose of 1.00 mg/kg; format: functional
[50] = molecular target: Sodium-dependent serotonin transporter (Rattus norvegicus) (UniProt P31652); assay: Number of uptake sites for [3H]paroxetine receptor binding after sub-acute dosing against Frontal cortex; format: tissue-based
Sodium-dependent serotonin transporter (Rattus norvegicus), sequence (P31652 whole entry): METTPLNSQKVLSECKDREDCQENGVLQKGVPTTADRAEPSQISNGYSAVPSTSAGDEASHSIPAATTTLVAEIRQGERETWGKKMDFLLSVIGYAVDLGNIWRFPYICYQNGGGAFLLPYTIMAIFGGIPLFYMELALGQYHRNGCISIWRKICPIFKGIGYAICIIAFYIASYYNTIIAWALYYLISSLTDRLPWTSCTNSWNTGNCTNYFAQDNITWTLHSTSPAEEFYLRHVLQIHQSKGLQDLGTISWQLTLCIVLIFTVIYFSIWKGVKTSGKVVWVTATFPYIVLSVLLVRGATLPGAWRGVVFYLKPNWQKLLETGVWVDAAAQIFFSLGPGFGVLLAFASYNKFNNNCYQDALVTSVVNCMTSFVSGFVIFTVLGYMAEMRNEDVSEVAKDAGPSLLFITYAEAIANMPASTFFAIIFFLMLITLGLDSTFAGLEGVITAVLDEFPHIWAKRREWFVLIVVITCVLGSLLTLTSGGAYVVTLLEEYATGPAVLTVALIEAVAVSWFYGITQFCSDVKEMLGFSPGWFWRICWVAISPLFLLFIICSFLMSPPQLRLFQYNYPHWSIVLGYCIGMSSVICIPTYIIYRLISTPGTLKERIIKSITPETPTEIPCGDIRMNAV

[51] = molecular target: Sodium-dependent serotonin transporter (Rattus norvegicus) (UniProt P31652); assay: Number of uptake sites for [3H]paroxetine receptor binding after sub-acute dosing against Hippocampus
[52] = system: Rattus norvegicus; assay: Momoamine and metabolic levels observed 2 weeks following sub-acute dosing against Frontal cortex HVA; format: ADME, organism-based; settings: in vivo, 336 h
[53] = system: Rattus norvegicus; assay: Momoamine and metabolic levels observed at 3 hr postdrug against, at a dose of 20 mg/kg Frontal cortex HVA; format: ADME, organism-based; set-up: dose 20 mg/kg; settings: in vivo

Work on COc1ccc2c(c1C)CC(N)C2 (centres undefined) yielded a Metabolite level [1] of 35, a Metabolite level [2] of 65 and a Metabolite level [3] of 509. The Metabolite level [4] was 81, the Metabolite level [5] was 312 and the Metabolite level [6] was 633. It also gave a Metabolite level [7] of 210, a Metabolite level [8] of 312 and a Metabolite level [9] of 88. For the same compound, the Metabolite level [10] was 36, the Metabolite level [11] was 583 and the Metabolite level [12] was 256. It also gave a Metabolite level [13] of 415, a Metabolite level [14] of 92 and a Metabolite level [15] of 54. The Metabolite level [16] was 568, the Metabolite level [17] was 518 and the Metabolite level [18] was 434. It also gave a Metabolite level [19] of 240, a Metabolite level [20] of 316 and a Metabolite level [21] of 74. The Metabolite level [22] was 414, the Metabolite level [23] was 434 and the Metabolite level [24] was 716. The Metabolite level [25] was 146, the Metabolite level [26] was 148 and the Metabolite level [27] was 113. For the same compound, the Metabolite level [28] was 40, the Metabolite level [29] was 558 and the Metabolite level [30] was 272. The Metabolite level [31] was 256, the Metabolite level [32] was 646 and the Metabolite level [33] was 476. For the same compound, the Metabolite level [34] was 462, the ED50 [35] was 2.63 µmol/kg and the ED50 ([36]; Rattus norvegicus, read-out: ED50) was 0.81 mg/kg. The ED50 ([36]; dose 0.25 mg/kg) was 0.56 mg/kg, the ED50 [37] was 3.77 µmol/kg and the IC50 [38] was 212 nM. For the same compound, the SDL [39] was 13%, the SDL [40] was 17% and the SDL [41] was 25%. The SDL [42] was 13%, the SDL [43] was 50% and the SDL [44] was 100%. For the same compound, the SDL [45] was 38%, the SDL [46] was 50% and the SDL [47] was 11%. It also gave an SDL [48] of 33%, an SDL [49] of 75% and a No. of uptake sites [50] of 13.6. It also gave a No. of uptake sites [51] of 15.6, a Metabolite level [52] of 59 and a Metabolite level [53] of 112.
